Measured values: ChEMBL document CHEMBL1201862, “PubChem BioAssay data set” (2004)
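Step 1: Grow cells in 96-well plates. Step 2: Expose to compound for 48 hours at 5 concentrations. Step 3: Interpolate endpoints linearly; if unreached, use highest concentration. GI50: concentration for 50% inhibition of growth.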 Calls of active or inactive are those of the source. Rule as the data show it: active = GI50 up to about 1.1 µM and inactive = higher.

Columns and labels:
Assay in all cases: DTP human tumour cell line panel, 48 h
[1] = system: 786-0
[2] = system: COLO 205
[3] = system: HOP-62
[4] = system: HT-29
[5] = system: K562
[6] = system: MCF7
[7] = system: MDA-MB-231
[8] = system: MDA-MB-435
[9] = system: MOLT-4
[10] = system: Malme-3M
[11] = system: OVCAR-4
[12] = system: PC-3
[13] = system: SF-295
[14] = system: SK-MEL-2
[15] = system: SNB-19
[16] = system: SNB-75
[17] = system: SW-620
[18] = system: T47D
[19] = system: SF-539
[20] = system: HCC 2998

SMILES | GI50 [1] | GI50 [2] | GI50 [3] | GI50 [4] | GI50 [5] | GI50 [6] | GI50 [7] | GI50 [8] | GI50 [9] | GI50 [10] | GI50 [11] | GI50 [12] | GI50 [13] | GI50 [14] | GI50 [15] | GI50 [16] | GI50 [17] | GI50 [18] | GI50 [19] | GI50 [20]
CC(C)(C)c1cc(Br)c(O)c(CN(Cc2cc(C(C)(C)C)cc(Br)c2O)C2CCCCC2)c1 | 14.6 µM (inactive) | 11.2 µM (inactive) | 15.2 µM (inactive) | 6.89 µM (inactive) | 13.3 µM (inactive) | 13.9 µM (inactive) | 15 µM (inactive) | 14.3 µM (inactive) | 10.4 µM (inactive) | 11.8 µM (inactive) | 10.5 µM (inactive) | 14.9 µM (inactive) | 12.7 µM (inactive) | 13.1 µM (inactive) | 14.1 µM (inactive) | 8.55 µM (inactive) | 13.1 µM (inactive) | 9.68 µM (inactive) |  | 
CCN1CN(c2ccccc2)C2(CCN(CC3COc4ccccc4O3)CC2)C1=O (stereo not drawn) | 47.9 µM (inactive) | 15.7 µM (inactive) | 35.6 µM (inactive) | 20.1 µM (inactive) | 37.9 µM (inactive) | 26.1 µM (inactive) | 2.57 µM (inactive) | 23.3 µM (inactive) | 14.5 µM (inactive) | 16.9 µM (inactive) |  | 25.3 µM (inactive) | 39.9 µM (inactive) | 13.2 µM (inactive) | 36.2 µM (inactive) | 30.2 µM (inactive) | 47.8 µM (inactive) | 24.3 µM (inactive) | 18.6 µM (inactive) | 
CCCC(=O)OC1CC(n2cc(F)c(=O)[nH]c2=O)OC1COP(=O)(OCC(Cl)(Cl)Cl)OCC(Cl)(Cl)Cl (stereo not drawn) | 0.31 µM (active) | 0.0614 µM (active) | 0.131 µM (active) | 13.7 µM (inactive) | > 10 µM (inactive) | 0.0697 µM (active) | 24.2 µM (inactive) | 18.2 µM (inactive) | 2.48 µM (inactive) | 5.41 µM (inactive) | 16.9 µM (inactive) | 7.74 µM (inactive) | 0.167 µM (active) | > 59.4 µM (inactive) | 3.15 µM (inactive) | 8.04 µM (inactive) | 19.9 µM (inactive) | 20.7 µM (inactive) |  | < 0.01 µM (active)
COc1cccc(/C=C/c2cnc3ccccc3n2)c1OC | 39.1 µM (inactive) | 48.3 µM (inactive) | 24.7 µM (inactive) | 26.4 µM (inactive) | 71 µM (inactive) | 25.9 µM (inactive) | 22 µM (inactive) | 32 µM (inactive) | 12.9 µM (inactive) | 34.5 µM (inactive) | 25.6 µM (inactive) | 25.1 µM (inactive) | 46.1 µM (inactive) | 28.8 µM (inactive) |  | 13.4 µM (inactive) | 52.1 µM (inactive) | 23.2 µM (inactive) | 45.7 µM (inactive) | 
Clc1nc(Cl)c(-c2ccccc2)c(Cl)n1 | 2.5 µM (inactive) | 1.84 µM (inactive) | 16.9 µM (inactive) | 7.66 µM (inactive) | 2.9 µM (inactive) | 3.04 µM (inactive) | 3.24 µM (inactive) | 3.24 µM (inactive) | 2.96 µM (inactive) | 2.02 µM (inactive) | 2.51 µM (inactive) |  | 12.7 µM (inactive) |  | 14.5 µM (inactive) | 0.64 µM (active) | 2.26 µM (inactive) | 2.59 µM (inactive) | 5.42 µM (inactive) | 
CC(C)/C(Cl)=N/OC(=O)Nc1cccc(C(F)(F)F)c1 | 2.52 µM (inactive) | 2.07 µM (inactive) | 18.1 µM (inactive) | 4.98 µM (inactive) | 1.54 µM (inactive) | 5.35 µM (inactive) | 6.68 µM (inactive) | 11.8 µM (inactive) | 1.67 µM (inactive) | 1.6 µM (inactive) | 7.05 µM (inactive) | 16.2 µM (inactive) | 18.3 µM (inactive) | 17.8 µM (inactive) | 19 µM (inactive) | 5.04 µM (inactive) | 1.35 µM (inactive) | 4.1 µM (inactive) |  | 15.8 µM (inactive)
O=[N+]([O-])c1nccn1CCCNCCCn1ccnc1[N+](=O)[O-] | > 100 µM (inactive) | > 100 µM (inactive) | > 100 µM (inactive) | 85.9 µM (inactive) | > 100 µM (inactive) | > 100 µM (inactive) | > 100 µM (inactive) | > 100 µM (inactive) | > 100 µM (inactive) | 36.6 µM (inactive) | > 100 µM (inactive) | > 100 µM (inactive) | > 100 µM (inactive) | > 100 µM (inactive) |  | > 100 µM (inactive) | > 100 µM (inactive) | > 100 µM (inactive) | > 100 µM (inactive) | 
Cc1c(C)c(S(=O)(=O)N(CCCN)OCCCN)c(C)c2c1OC(C)(C)C2 | 25.5 µM (inactive) | 17.1 µM (inactive) | 35.6 µM (inactive) | 45.8 µM (inactive) | 35 µM (inactive) | 20.5 µM (inactive) | 14.8 µM (inactive) | 53.7 µM (inactive) | 20.4 µM (inactive) | 18.5 µM (inactive) | 30.7 µM (inactive) | 17.7 µM (inactive) | 29.8 µM (inactive) | 9.64 µM (inactive) | 15.4 µM (inactive) | 17.3 µM (inactive) | 27.5 µM (inactive) | 32.6 µM (inactive) |  | 19.5 µM (inactive)
CC(C)CC(O)P(=O)(O)O.NC1CCCCC1 (stereo not drawn) | > 100 µM (inactive) | > 100 µM (inactive) | > 100 µM (inactive) | > 100 µM (inactive) | > 100 µM (inactive) | > 100 µM (inactive) | > 100 µM (inactive) | > 100 µM (inactive) | > 100 µM (inactive) |  | > 100 µM (inactive) | > 100 µM (inactive) | > 100 µM (inactive) | > 100 µM (inactive) | > 100 µM (inactive) | > 100 µM (inactive) | > 100 µM (inactive) | > 100 µM (inactive) |  | > 100 µM (inactive)
C=CCN(c1cc(OC)c(NC(C)=O)cc1[N+](=O)[O-])S(C)(=O)=O | > 100 µM (inactive) | > 100 µM (inactive) | > 100 µM (inactive) |  | > 100 µM (inactive) | > 100 µM (inactive) | > 100 µM (inactive) | > 100 µM (inactive) | > 100 µM (inactive) | 10.1 µM (inactive) | > 100 µM (inactive) | > 100 µM (inactive) | > 100 µM (inactive) | > 100 µM (inactive) | > 100 µM (inactive) | > 100 µM (inactive) | > 100 µM (inactive) | > 100 µM (inactive) |  | > 100 µM (inactive)
C/C=C\C(CC(=O)NCCc1c[nH]c2ccccc12)CC(=O)OC (stereo not drawn) | > 100 µM (inactive) | > 100 µM (inactive) | > 100 µM (inactive) | > 100 µM (inactive) | > 100 µM (inactive) | > 100 µM (inactive) | > 100 µM (inactive) | > 100 µM (inactive) | > 100 µM (inactive) | > 100 µM (inactive) | > 100 µM (inactive) | > 100 µM (inactive) | > 100 µM (inactive) | > 100 µM (inactive) | > 100 µM (inactive) | > 100 µM (inactive) | > 100 µM (inactive) | > 100 µM (inactive) |  | > 100 µM (inactive)
COP(=O)(OC)C(O)CC(C)C (stereo not drawn) | > 100 µM (inactive) | > 100 µM (inactive) | > 100 µM (inactive) | > 100 µM (inactive) | > 100 µM (inactive) | > 100 µM (inactive) | > 100 µM (inactive) | > 100 µM (inactive) | > 100 µM (inactive) |  | > 100 µM (inactive) | > 100 µM (inactive) | > 100 µM (inactive) | > 100 µM (inactive) | > 100 µM (inactive) | > 100 µM (inactive) | > 100 µM (inactive) | > 100 µM (inactive) |  | > 100 µM (inactive)
Cc1c(-c2ccccc2)nn2cc(-c3ccccc3)nnc12 | 17.2 µM (inactive) | 22.2 µM (inactive) | 28.7 µM (inactive) | 24.2 µM (inactive) | 31 µM (inactive) |  | 18.3 µM (inactive) | 29.5 µM (inactive) | 35.5 µM (inactive) | 13.3 µM (inactive) | 44.5 µM (inactive) | 19.6 µM (inactive) | 34.8 µM (inactive) | 15.1 µM (inactive) | 40.8 µM (inactive) | 20.7 µM (inactive) | 23 µM (inactive) | 61.2 µM (inactive) |  | 15.5 µM (inactive)
N#CCC1(c2ccc(Cl)cc2)NC(=O)c2ccccc21 (stereo not drawn) | > 100 µM (inactive) | > 100 µM (inactive) | > 100 µM (inactive) | > 100 µM (inactive) | > 100 µM (inactive) | > 100 µM (inactive) | > 100 µM (inactive) | > 100 µM (inactive) | > 100 µM (inactive) | > 100 µM (inactive) | > 100 µM (inactive) | > 100 µM (inactive) | > 100 µM (inactive) | > 100 µM (inactive) | > 100 µM (inactive) | 60.8 µM (inactive) | > 100 µM (inactive) | > 100 µM (inactive) | > 100 µM (inactive) | 
CC(=O)Oc1ccc(/C=C/C(=O)O[C@@H](C(=O)O)[C@@H](OC(=O)/C=C/c2ccc(OC(C)=O)c(OC(C)=O)c2)C(=O)O)cc1OC(C)=O | > 100 µM (inactive) | > 100 µM (inactive) | > 100 µM (inactive) |  | > 100 µM (inactive) | > 100 µM (inactive) | > 100 µM (inactive) | > 100 µM (inactive) |  | > 100 µM (inactive) | > 100 µM (inactive) | > 100 µM (inactive) | > 100 µM (inactive) | > 100 µM (inactive) | > 100 µM (inactive) | 82.8 µM (inactive) | > 100 µM (inactive) | > 100 µM (inactive) |  | > 100 µM (inactive)
